Columns and labels:
[1] = system: 96 nts fragment of HIV-1 RNA; set-up: method as in PMID 15047859, PMID 16615805; settings: non-complementary RNA substrates; cited from earlier work
[2] = system: miR-17; assay: RNA cleavage assay, miR-17; type: biochemical; settings: miR-17 1 µM, conjugate 20 µM, 37 °C, 24 h
Protocol: (§1) The reaction mixture (5 µl) contained 10^5 cpm (Cherenkov’s counting) of [^32P]-RNA, 1 μM unlabeled RNA, and one of the conjugates at a concentration ranging from 1 to 100 μM, 50 mM Tris-HCl, pH 7.0, 0.2 M KCl, and 1 mM EDTA. […] To identify cleavage sites, imidazole and T1-ladders produced by partial RNA cleavage with 2 M imidazole buffer (pH 7.0)[41] and with RNase T1[42], respectively, were run in parallel. To obtain quantitative data, gels were dried and analyzed using Molecular Imager FX (Bio-Rad, USA). The total extent of RNA cleavage and the extent of RNA cleavage at each individual site were determined with Quantity One software.

[3] = system: miR-21; assay: RNA cleavage assay, miR-21; type: biochemical; settings: miR-21 1 µM, conjugate 100 µM, 37 °C, 0-144 h
Protocol: as §1

[4] = system: miR-21^hybrid; assay: RNA cleavage assay, miR-21^hybrid; type: biochemical; settings: RNA 1 µM, conjugate 20 µM, 37 °C, 24 h time point
Protocol: as §1

[5] = system: miR-21; assay: Gel-retardation assay, hybridization with miR-21; type: binding; settings: at equimolar concentration and higher; miR-21 1 µM, 0.5-10 µM oligonucleotide or conjugate, 37 °C, 1 h, 50 mM Tris-HCl pH 7.0, 0.2 M KCl, 1 mM EDTA, 15% native PAAG
Protocol: The samples were loaded onto the running gel immediately after quenching the reaction with an interval of 1 min. […] To obtain quantitative data, gels were dried and analyzed using Molecular Imager FX (Bio-Rad, USA). The extent of binding of oligonucleotide to miR-21 was determined using Quantity One software as a ratio of radioactivity measured in the complex to the total radioactivity applied onto the gel lane.

[6] = system: melanoma B16 cells; assay: xCELLigence real-time analysis of cell proliferation; type: cell-based, murine; settings: 1 µM with Lipofectamine 2000, 120 h; for cell index: untreated control cell index 5
Protocol: Proliferation experiments were performed using an xCELLigence real-time cell analysis (RTCA) system (ACEABiosciences, USA) in an atmosphere of 5% CO2 at 37 °C. B16 melanoma cells were seeded at a concentration of 5 × 10^3 cells per well of 16-well E-Plates. The following day, the cells were transfected with conjugate 4, control conjugate 7 or oligonucleotide 4 at 1 µM concentration using Lipofectamine™ 2000 (Invitrogen, USA). In 4 h after transfection, the medium in the wells was replaced with DMEM medium containing 10% of FBS and 1% of antibiotics antimycotic solution. Cell proliferation experiments were run for 120 h and Cell Index was monitored every 30 min for the whole experiment duration. Four replications of each cell densities were used in the cell proliferation experiment.

[7] = system: miR-17; assay: miR-17 level in B16 cells by stem-loop qPCR; type: cell-based, murine; settings: for decrease in the miR-17 level: 24 h after transfection with Lipofectamine 2000, 0.5 and 1 µM, normalized to U6, mean of three independent experiments
Protocol: Murine B16 melanoma cells (1.5–1 × 10^5 per well of 24-well plate) were pre-seeded in DMEM containing 10% FBS a day before transfection and were incubated at 37 °C in a humidified atmosphere with 5% CO2. Before the transfection, the medium was replaced by serum-free and antibiotic-free DMEM, and cells were incubated for 4 h with 0.05–1 µM of conjugate 4 precomplexed with Lipofectamine 2000 (Invitrogen, USA) in Opti-MEM medium according to manufacturer’s instructions. Then, the medium was replaced by culture medium containing 10% FBS and 1% antibiotic antimycotic solution ([…] streptomycin, 10000 IU/mL penicillin, and 25 µg/mL amphotericin), and the cells were cultivated for 24 h under the same conditions. After 24 h, total RNA was isolated from the cells using TRIzol Reagent (Invitrogen, USA) according to the manufacturer’s protocol.
Expression of miR-17, miR-21, miR-18a and let-7g in B16 cells was analyzed using stem-loop PCR technology[43],[44]. cDNA synthesis was carried out using SuperScript III reverse transcriptase (SSIII RT, Invitrogen, USA) as previously described. The RT and PCR primers used in the study are presented in Table S1 (Supplementary information). PCR amplification was carried out in a total volume of 20 µl, using Maxima Hot Start Taq DNA polymerase (Thermo Scientific, USA), 1 × PCR Buffer, 1.5 mM MgCl2, 0.2 mM dNTPs, 1 × EvaGreen (Biotium, Hayward, USA), and […] of PCR sense and antisense primers. The reaction was performed with initial preheating at 94 °C for 4 min and 40 cycles of 94 °C for 40 s, 61 °C for 30 s, and 72 °C for 30 s, followed by melting point determination. The obtained PCR data were analyzed using standard Bio-Rad iQ5 v.2.0 software. For each sample, the threshold cycle (Ct) was determined. Quantitative assessment of the level of transcripts representation and relative miRNA expression was performed by comparing the Ct values for miR-17 and a reference U6.

[8] = system: let 7-g; assay: Off-target let-7g level in B16 cells by stem-loop qPCR; type: cell-based, murine; settings: 1 µM, 24 h, Lipofectamine 2000, normalized to U6
[9] = system: miR-21; assay: Off-target miR-21 level in B16 cells by stem-loop qPCR; type: cell-based, murine; settings: 1 µM, 24 h, Lipofectamine 2000, normalized to U6
[10] = system: miR-18a; assay: Off-target miR-18a level in B16 cells by stem-loop qPCR; type: cell-based, murine; settings: 1 µM, 24 h, Lipofectamine 2000, normalized to U6
[11] = system: E2F1; assay: Western blot of miR-17 protein target E2F1 in B16 cells; type: cell-based, murine; settings: 1 µM, 72 h after transfection, GAPDH internal control
Protocol: Cell lysates were separated in 12.5% SDS-PAGE and transferred to a PVDF membrane using a semi-dry transfer. The membranes were blocked for 1 h in 3% nonfat dried milk in TBST (20 mM Tris- HCl, pH 7.6,137mMNaCl, 0.1% Tween), and incubated with primary antibodies against E2F1 (ab179445, Abcam, UK, 1:500) and reference protein GAPDH (ab9485, Abcam, UK, 1:1000) at +4 °C for night. After three washes with TBST, membranes were incubated with secondary HRP-conjugated goat anti-rabbit antibodies (ab6721, Abcam, UK) at room temperature for 1 h. After three washes with TBST luminescence detection was performed by Versadoc 4000 MP (Bio-Rad, USA) using Chemiluminescent reagent kit (Abcam, USA). Data were analyzed using GelPro 4.0 software (Media Cybernetics, USA).

[12] = system: miR-17; assay: Cleavage of duplexes miR-17/ON and miR-17/conjugate by RNase H; type: biochemical; settings: miR-17 10 µM, conjugate 5 µM, 37 °C
Protocol: The reaction mixture (10 µl) contained 10^5 cpm (Cherenkov’s counting) of [^32P]-miR-17, 10 µM unlabeled miR-17, oligonucleotide 4 or conjugate 4 at a concentration of 5 µM, 50 mM Tris-HCl, pH 7.0, 0.2 M KCl, and 1 mM EDTA was incubated at 37 °C for 20 min. Then, RNase H (Thermo Scientific, USA) was added to the reaction mixture to a final concentration 100 U/ml and incubated at 37 °C. At different time points, 30 min and 1, 2, 4, 8, and 24 h, an aliquot was taken and the reaction was quenched by precipitation of RNA with 2% LiClO4 in acetone. RNA cleavage products were analyzed by electrophoresis in denaturing gel as described above.

NH2-Gly(ArgLeu)4-TCAA [short peptide-oligonucleotide conjugate, small chemical ribonuclease used as catalytic construction]
cleavage specificity [1]: Pyr-A cleavage specificity

NH2—Gly(ArgLeu)4—P— (DEG)2—CTGTAAGCACTTTGGTCAGCGAAAGCTGAC [conjugate 6]
cleavage of miR-17 at a 20-fold excess of conjugate [2]: complete loss of ribonuclease activity

NH2—Gly(ArgLeu)4—P—TCAA—(DEG)2—AGT CTG ATA AGC TA [conjugate 1, peptide-oligonucleotide conjugate (miRNase) targeted to miR-21, linear 14 nt oligonucleotide, double DEG linker]
cleavage efficiency of miR-21 at a 100-fold excess of conjugate [3]: 50% | total extent of miR-21^hybrid cleavage at a 20-fold excess of conjugates [4]: 55% | hybridization (binding) efficiency with miR-21 [5]: 25%

NH2—Gly(ArgLeu)4—P—TCAA—(DEG)2—CTGTAAGCACTTTGGTCAGCGAAAGCTGAC [conjugate 4]
cleavage of miR-17 at a 20-fold excess of conjugate [2]: 9% | cell index [6]: 1 | fold decrease of growth rate / inhibition of cell proliferation ([6]; versus untreated cells): 5 fold | advantage in inhibition efficiency in comparison with antisense oligonucleotide 4 [7]: 2 fold | decrease in the miR-17 level [7]: 80% | lowest concentration with statistically significant reduction of miR-17 level ([7]; 24 h after transfection, range 0.05-1 µM): 0.1 µM | expression level of let 7-g versus controls [8]: no statistically significant differences | expression level of miR-21 versus controls [9]: no statistically significant differences | expression level of miR-18a versus controls [10]: no statistically significant differences | increase of the level of E2F1 protein as compared with control [11]: 2.2 fold | increase of conjugate activity (miR-17 cleavage at conjugate sites) in the presence of RNase H ([12]; RNase H 100 U/ml): 11 fold | miR-17 cleavage at RNase H sites during the first 2 h, with RNase H ([12]; RNase H 100 U/ml, 2 h): 45% | miR-17 cleavage at sites C17-A18 and U21-A22 after 4 h, with RNase H ([12]; RNase H 100 U/ml, 4 h): 47% | miR-17 destroyed after 8 h, with RNase H ([12]; RNase H 100 U/ml, 8 h): 95% | miR-17 cleavage by conjugate alone under two-fold excess of RNA ([12]; no RNase H, 24 h): 9%

NH2—Gly(ArgLeu)4—P—TCAA—(DEG)2—TCTGATAAGCTACGTAGCGAAAGCTACG [conjugate 2]
cleavage efficiency of miR-21 at a 100-fold excess of conjugate [3]: 50% | total extent of miR-21^hybrid cleavage at a 20-fold excess of conjugates [4]: 85% | hybridization (binding) efficiency with miR-21 [5]: 48%

NH2—Gly(ArgLeu)4—P—TCAA—(DEG)—CTGTAAGCACTTTGGTCAGCGAAAGCTGAC [conjugate 5, miRNase targeted to miR-17, as conjugate 4 with single DEG linker]
cleavage of miR-17 at a 20-fold excess of conjugate [2]: 3%

NH2—Gly(ArgLeu)4—P—TCAA—(TrEG)2—CGATAAATAACGCGCAAGTCAGCGAAAGCTGACTTG [conjugate 7, control conjugate addressed to luciferase mRNA]
cell index [6]: 3.2 | decrease in the miR-17 level [7]: does not evoke any statistically significant reduction | increase of the level of E2F1 protein as compared with control [11]: no statistically significant change
